Measurements reported in patent publication US4701455A, “Biopterin analogs” (Burroughs Wellcome Co., priority 1983, dated 1987).

Assays:
Type in all cases: biochemical
Tyrosine hydroxylase = Tyrosine hydroxylase (Homo sapiens, UniProt P07101); experiment: Tyrosine hydroxylase cofactor assay; conditions: relative to tetrahydrobiopterin = 100
Experimental: Tyrosine hydroxylate was partially purified through a 25-45% ammonium sulfate fraction. […] The enzyme was assayed by a modification of the method of Nagatsu, T., Levitt, M., and Udenfriend, S. (Anal. Biochem. 9, 122, (1964)) where the Dowex chromatography step was replaced by a charcoal extraction.

[1] = biological target: T1, Phenylalanine hydroxylase (Rattus norvegicus, UniProt P04176); experiment: Phenylalanine hydroxylase cofactor assay; conditions: rat liver enzyme; relative to tetrahydrobiopterin = 100
T1 construct: Phenylalanine hydroxylase was prepared from rat liver; from tissue; host or cells: rat liver
T1 sequence (P04176 1-453): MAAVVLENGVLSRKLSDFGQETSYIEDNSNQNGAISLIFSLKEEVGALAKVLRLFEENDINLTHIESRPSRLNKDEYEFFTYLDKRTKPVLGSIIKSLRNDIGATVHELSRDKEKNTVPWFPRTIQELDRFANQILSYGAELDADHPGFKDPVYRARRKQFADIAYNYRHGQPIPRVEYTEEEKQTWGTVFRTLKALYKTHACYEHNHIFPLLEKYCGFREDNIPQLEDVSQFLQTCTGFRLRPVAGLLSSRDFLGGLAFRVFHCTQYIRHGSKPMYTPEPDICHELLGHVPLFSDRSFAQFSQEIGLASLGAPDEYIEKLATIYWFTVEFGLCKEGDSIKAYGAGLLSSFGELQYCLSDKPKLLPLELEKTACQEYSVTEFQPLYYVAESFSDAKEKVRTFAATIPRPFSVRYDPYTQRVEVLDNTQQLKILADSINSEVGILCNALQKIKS
Experimental: Phenylalanine hydroxylase was measured as described in Shiman, R. et al., (J. Biol. Chem. 254: 11300 (1979)) except that the product of the reaction (tyrosine) was measured fluorometrically using the method of Waalkes, T. P. and Udenfriend, S. (J. Lab. Clin. Med. 50: 733 (1957). Phenylalanine hydroxylase was prepared from rat liver using hydrophobic chromatography (Shiman, R. et al. (J. Biol. Chem. 254: 11,300 (1979)). The specific activity of the enzyme, using BH4 as the co-factor, was 1.0 μmol/mg protein per minute at 37°.

Tryptophan hydroxylase = biological target: T2, Tryptophan hydroxylase (Rattus norvegicus, UniProt Q8CGU9); experiment: Tryptophan hydroxylase cofactor assay; conditions: relative to tetrahydrobiopterin = 100
T2 construct: crude 30,000×g supernatant; from tissue
T2 sequence (Q8CGU9 1-485): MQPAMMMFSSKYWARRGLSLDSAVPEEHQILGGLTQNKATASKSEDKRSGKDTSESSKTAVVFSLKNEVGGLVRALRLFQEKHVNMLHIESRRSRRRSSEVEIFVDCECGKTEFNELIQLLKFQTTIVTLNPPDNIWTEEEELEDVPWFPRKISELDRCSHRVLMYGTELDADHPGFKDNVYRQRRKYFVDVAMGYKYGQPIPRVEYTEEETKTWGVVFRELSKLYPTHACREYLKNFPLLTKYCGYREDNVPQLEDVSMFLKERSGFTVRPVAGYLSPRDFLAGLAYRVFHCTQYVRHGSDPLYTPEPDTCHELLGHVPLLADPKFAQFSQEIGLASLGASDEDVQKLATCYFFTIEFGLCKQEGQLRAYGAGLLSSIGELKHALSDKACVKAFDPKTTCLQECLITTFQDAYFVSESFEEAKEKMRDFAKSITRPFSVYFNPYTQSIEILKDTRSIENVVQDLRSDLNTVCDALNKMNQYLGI
Experimental: Trytophan hydroxylase was assayed according to a modification of the method of Renson J., et al (Biochem. Biophys. Acta 25: 504 (1966)). The preparation of tryptophan hydroxylase was a crude 30,000×g supernatant which had been desalted on a Sephadex G-25 (Trade Name) column (Boadle-Biker, M.C., Biochem Pharmacol. 28: 2129 (1979).

[2] = tested on: Dihydropteridine reductase; experiment: Dihydropteridine reductase assay; conditions: quinonoid dihydro form; relative to tetrahydrobiopterin form = 100
Experimental: Dihydropteridine reductase was assayed by the method of Craine, et al., (J. Biol. Chem., 247, 6082 (1972)).

bovine liver DHFR = biological target: T3, bovine liver DHFR (Bos taurus, UniProt P00376); experiment: Dihydrofolate reductase assay; conditions: for Dihydrofolate reductase V: 7,8-dihydro form, relative to 7,8-dihydrobiopterin = 100, bovine liver DHFR
T3 construct: bovine liver DHFR; from tissue; host or cells: bovine liver
T3 sequence (P00376 1-187): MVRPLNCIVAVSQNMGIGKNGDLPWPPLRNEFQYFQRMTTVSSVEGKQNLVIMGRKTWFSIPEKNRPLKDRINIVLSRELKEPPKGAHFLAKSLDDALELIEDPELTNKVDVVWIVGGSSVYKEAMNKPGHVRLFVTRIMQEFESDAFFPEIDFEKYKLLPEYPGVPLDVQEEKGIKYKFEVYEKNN
Experimental: These assays were carried out on the 7,8-dihydropterin analogs of the compounds of formula I which was tetrahydropterins. The 7,8-dihydropterinswere obtained commercially (in the case of dihydrobiopterin) or synthesized from the corresponding compound of formula I. Synthesis of 7,8-dihydropterins involved the combination of 0.27 μmole of a compound of formula I, 20 μg of horseradish peroxidase, 0.6 μmole of hydrogen peroxide in 0.1 ml of 0.5M potassium phosphate buffer, pH 7.5. After 3 min at room temperature, 10 μg of bovine liver catalase was added. The production of the 7,8-dihydropterin was verified by U.V. spectroscopy.
The assay was carried out with bovine liver DHFR using a modification of the method of Bailey and Ayling (J. Biol. Chem., 253, 1598 (1978)) where the desired dihydropterin replaced dihydrobiopterin, and the HPLC system used consisted of an anaerobic 0.1M acetic acid (with or without 10% acetonitrite) solvent on a 25 cm×4.6 mm Dupont TMS-Zorbax column. In our hands, dihydrobiopterin is reduced at a rate 2.5% that of the natural substrate dihydrofolate.

Tyrosine hydroxylase, sequence (P07101 whole entry): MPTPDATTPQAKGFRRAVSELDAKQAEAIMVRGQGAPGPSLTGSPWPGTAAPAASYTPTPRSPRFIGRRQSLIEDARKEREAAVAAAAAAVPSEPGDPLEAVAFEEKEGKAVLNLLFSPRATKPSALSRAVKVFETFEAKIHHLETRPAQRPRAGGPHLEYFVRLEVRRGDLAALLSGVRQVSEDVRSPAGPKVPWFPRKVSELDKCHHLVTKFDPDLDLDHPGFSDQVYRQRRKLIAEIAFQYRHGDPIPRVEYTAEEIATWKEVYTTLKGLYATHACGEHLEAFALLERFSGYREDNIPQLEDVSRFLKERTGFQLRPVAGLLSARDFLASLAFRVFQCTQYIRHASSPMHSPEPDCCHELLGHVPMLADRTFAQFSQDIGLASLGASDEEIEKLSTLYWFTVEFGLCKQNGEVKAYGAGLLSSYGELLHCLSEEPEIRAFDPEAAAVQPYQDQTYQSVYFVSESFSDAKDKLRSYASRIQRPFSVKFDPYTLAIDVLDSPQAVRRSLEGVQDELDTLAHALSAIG

| Tyrosine hydroxylase Vmax (Tyrosine hydroxylase) | Phenylalanine hydroxylase Vmax [1] | Tryptophan hydroxylase Vmax (Tryptophan hydroxylase) | Dihydropteridine reductase Vmax [2] | Dihydrofolate reductase V (bovine liver DHFR) | Rate of reduction by DHFR relative to dihydrofolate (bovine liver DHFR; relative to natural substrate dihydrofolate) | SMILES |
| --- | --- | --- | --- | --- | --- | --- |
| 124% | 79% | 54% | 295% | 800% |  | COCC1CNc2nc(N)[nH]c(=O)c2N1 (racemic) [6-Methoxymethyl-tetrahydropterin, (+-)-2-Amino-5,6,7,8-tetrahydro-6-methoxymethyl-4(3H)-pteridinone] |
|  |  |  |  |  | 2.5% | C[C@H](O)[C@H](O)C1=Nc2c(nc(N)[nH]c2=O)NC1 [7,8-Dihydrobiopterin] |
| 100% | 100% | 100% | 100% | 100% |  | C[C@H](O)[C@H](O)[C@H]1CNc2nc(N)[nH]c(=O)c2N1 [Tetrahydrobiopterin] |
